The record followed here is patent US9359308B2, “Pyrazine kinase inhibitors” (Portola Pharmaceuticals, Inc., priority 2011, dated 2016).

The target of this experiment is T1, full length active recombinant SYK enzyme (Homo sapiens, UniProt P43405).
T1 construct: full length active recombinant SYK enzyme (Millipore, Calif.); purchased Millipore
The experiment is described as follows: Inhibition of Syk tyrosine phosphorylation activity (LANCE TR-FRET kinase assay). Conditions: activity in the Syk assays, class symbols. It is filed as biochemical. The text has this: The in vitro and in vivo human Syk activities of the inventive compounds can be determined by various procedures known in the art, such as a test for their ability to inhibit the activity of human plasma Syk. […] The IC50 value is the concentration (in nM) of the compound required to provide 50% inhibition of human Syk proteolytic activity.
An in vitro assay for detecting and measuring inhibition activity against Syk is as follows:
Inhibition of Syk Tyrosine Phosphorylation Activity
Potency of candidate molecules for inhibiting Syk tyrosine phosphorylation activity is assessed by measuring the ability of a test compound to inhibit Syk-mediated tyrosine phosphorylation of a Syk-specific substrate.
SYK tyrosine phosphorylation activity is measured using the LANCE™ Technology developed by Perkin Elmer Life and Analytical Sciences (Boston, Mass.). LANCE™ refers to homogeneous time resolved fluorometry applications using techniques such as time-resolved fluorescence resonance energy transfer assay (TR-FRET) (see generally for procedures in Perkin Elmer Application Note-How to Optimize a Tyrosine Kinase Assay Using Time Resolved Fluorescence-Based LANCE Detection, wwww.perkinelmer.com/lifesciences). The assay principle involves detection of a phosphorylated substrate using energy transfer from a phosphospecific europium-labeled antibody to streptavidin-allophycocyanin as an acceptor.
To test the ability of candidate molecules to inhibit SYK tyrosine phosphorylation activity, molecules are reconstituted in 30% DMSO and serially diluted 1:3 with the final dilution containing DMSO in the absence of the candidate molecule. The final DMSO concentration in the assay is 3%. Kinase assays are performed as a two part reaction. The first reaction is a kinase reaction and which comprises of a candidate molecule, full length active recombinant SYK enzyme (Millipore, Calif.) and biotin-labeled SYK-specific substrate biotin-DEEDYESP-OH. The second reaction involves termination of the kinase reaction and the simultaneous addition of the detection reagents-europium-labeled anti-phosphotyrosine reagent (Eu-W1024-PY100, Perkin Elmer, Boston, Mass.) and Streptavidin-Allophycocyanin detection reagent (SA-APC, Prozyme, CA). The kinase reaction is performed in a black U-bottom 96-well microtitre plate. The final reaction volume is 50 μL and contains a final concentration of 1 nM active SYK enzyme, 550 nM SYK-substrate, and 100 μM ATP diluted in a buffer containing 50 mM Tris pH 7.5, 5 mM MgCl2, and 1 mM DTT. The reaction is allowed to proceed for 1 hour at room temperature. The quench buffer contains 100 mM Tris pH 7.5, 300 mM NaCl2, 20 mM EDTA, 0.02% Brij35, and 0.5% BSA. The detection reagents are added to the reaction mixture at the following dilutions-1:500 for Eu-W1024-PY100 and 1:250 for SA-APC. The kinase reaction is terminated by the addition of 50 μL quench buffer containing the detection reagents. The detection is allowed to proceed for 1 hr at room temperature. Detection of the phosphorlated substrate in the absence and presence of inhibitors is measured in the TR-FRET instrument, Analyst HT (Molecular Probes, Sunnyvale, Calif.) and the condition for measurements are set up using CriterionHost Release 2.0 (Molecular Probes, Sunnyvale, Calif.). The settings used are a follows: excitation 360 nm, emission 665-7.5 nm, beam splitter 350 nm 50/50, flash 100 pulses, delay 60 us, integration 400 us, z-height 2 mm. Inhibition of SYK-tyrosine kinase activity is calculated as the maximum response observed in the presence of inhibitor, compared to that in the absence of inhibitor. IC50s were derived by non-linear regression analysis.

SMILES strings stand for the structures.

As for `CC[C@@H](Nc1cnc(C(N)=O)c(Nc2cnc(N(C)C)c(C)c2)n1)C(N)=O` [Example 314, (R)-5-(1-amino-1-oxobutan-2-ylamino)-3-(6-(dimethylamino)-5-methylpyridin-3-ylamino)pyrazine-2-carboxamide], the IC50 lay within 100 to 1000 nM.
Under `NC(=O)c1ncc(N[C@H]2CCCNC2)nc1Nc1cnc2ccccc2c1` [Example 57, (S)-5-(piperidin-3-ylamino)-3-(quinolin-3-ylamino)pyrazine-2-carboxamide] stands 100 to 1000 nM.
Under `COc1cc(Nc2nc(N[C@@H]3CCCC(F)(F)[C@@H]3N)cnc2C(N)=O)ccn1` [Example 331, 5-((1R,2R)-2-amino-3,3-difluorocyclohexylamino)-3-(2-methoxypyridin-4-ylamino)pyrazine-2-carboxamide] stands 10 to 100 nM; under `CC(C)[C@@H](Nc1cnc(C(N)=O)c(Nc2cnc3ccccc3c2)n1)C(N)=O` [Example 66, (R)-5-(1-amino-3-methyl-1-oxobutan-2-ylamino)-3-(quinolin-3-ylamino)pyrazine-2-carboxamide], 1 to 10 nM; under `NC(=O)c1ncc(N[C@@H]2CCNC2)nc1Nc1cnc2ccccc2c1` [Example 55, (R)-5-(pyrrolidin-3-ylamino)-3-(quinolin-3-ylamino)pyrazine-2-carboxamide], 1 to 10 nM.
Under `CC[C@@H](Nc1cnc(C(N)=O)c(Nc2cccc3ccncc23)n1)C(N)=O` [Example 377, (R)-5-(1-amino-1-oxobutan-2-ylamino)-3-(isoquinolin-8-ylamino)pyrazine-2-carboxamide] stands 100 to 1000 nM; under `NC(=O)c1ncc(N[C@@H]2CCCC(F)(F)[C@@H]2N)nc1Nc1ccc2c(c1)COCC2` [Example 451, 5-(((1R,2R)-2-amino-3,3-difluorocyclohexyl)amino)-3-(isochroman-7-ylamino)pyrazine-2-carboxamide], 1 to 10 nM; under `CC(=O)N1CCN(c2ccc(Nc3cnc(C(N)=O)c(NC4CC4)n3)cc2)CC1` [Example 60, 5-(4-(4-acetylpiperazin-1-yl)phenylamino)-3-(cyclopropylamino)pyrazine-2-carboxamide], over 1000 nM.
For `CC[C@@H](Nc1cnc(C(N)=O)c(Nc2cc(C)cc(C)c2)n1)C(N)=O` [Example 77, (R)-5-(1-amino-1-oxobutan-2-ylamino)-3-(3,5-dimethylphenylamino)pyrazine-2-carboxamide], the IC50 lay within 1 to 10 nM.
Under `NC(=O)c1ncc(N[C@@H]2CCNC2)nc1Nc1ccc2ncccc2c1` [Example 56, (R)-5-(pyrrolidin-3-ylamino)-3-(quinolin-6-ylamino)pyrazine-2-carboxamide] stands 1 to 10 nM; under `CC(C)[C@@H](Nc1cnc(C(N)=O)c(Nc2ccc3ncccc3c2)n1)C(N)=O` [Example 67, (R)-5-(1-amino-3-methyl-1-oxobutan-2-ylamino)-3-(quinolin-6-ylamino)pyrazine-2-carboxamide], 1 to 10 nM; under `CC[C@@H](Nc1cnc(C(N)=O)c(Nc2ccc(-c3ncco3)cc2)n1)C(N)=O` [Example 446], 1 to 10 nM.
Under `CC(C)(C)C[C@@H](Nc1cnc(C(N)=O)c(Nc2ccnc(F)c2)n1)C(N)=O` [Example 265, (R)-5-(1-amino-4,4-dimethyl-1-oxopentan-2-ylamino)-3-(2-fluoropyridin-4-ylamino)pyrazine-2-carboxamide] stands 1 to 10 nM; under `CC[C@@H](Nc1cnc(C(N)=O)c(Nc2cncc(F)c2)n1)C(N)=O` [Example 182, (R)-5-(1-amino-1-oxobutan-2-ylamino)-3-(5-fluoropyridin-3-ylamino)pyrazine-2-carboxamide], 10 to 100 nM; under `CC(=O)N1CC[C@@H](Nc2cnc(C(N)=O)c(Nc3cnc4ccccc4c3)n2)C1` [Example 110, (R)-5-((1-acetylpyrrolidin-3-yl)amino)-3-(quinolin-3-ylamino)pyrazine-2-carboxamide], over 1000 nM.
On to `C[C@@H](Nc1cnc(C(N)=O)c(Nc2ccc3ncccc3c2)n1)C(N)=O` [Example 4, (R)-5-(1-amino-1-oxopropan-2-ylamino)-3-(quinolin-6-ylamino)pyrazine-2-carboxamide], for which the IC50 lay within 1 to 10 nM.
Under `CC(C)(C)[C@@H](Nc1cnc(C(N)=O)c(Nc2ccc3ncccc3c2)n1)C(N)=O` [Example 192, (R)-5-(1-amino-3,3-dimethyl-1-oxobutan-2-ylamino)-3-(quinolin-6-ylamino)pyrazine-2-carboxamide] stands 1 to 10 nM; under `CC[C@@H](Nc1cnc(C(N)=O)c(Nc2cncc3ccccc23)n1)C(N)=O` [Example 367, (R)-5-(1-amino-1-oxobutan-2-ylamino)-3-(isoquinolin-4-ylamino)pyrazine-2-carboxamide], 1 to 10 nM; under `NC(=O)c1ncc(N[C@H](Cc2ccccc2)C(N)=O)nc1Nc1ccc2ncccc2c1` [Example 31, (R)-5-(1-amino-1-oxo-3-phenylpropan-2-ylamino)-3-(quinolin-6-ylamino)pyrazine-2-carboxamide], 1 to 10 nM.
Under `CC[C@@H](Nc1cnc(C(N)=O)c(Nc2cnn(C3CC3)c2)n1)C(N)=O` [Example 260, (R)-5-(1-amino-1-oxobutan-2-ylamino)-3-(1-cyclopropyl-1H-pyrazol-4-ylamino)pyrazine-2-carboxamide] stands 100 to 1000 nM; under `NC(=O)c1ncc(N[C@@H]2CCCC[C@@H]2N)nc1Nc1cc(C(=O)N2CCCC2)ccc1F` [Example 289, 5-((1R,2S)-2-aminocyclohexylamino)-3-(2-fluoro-5-(pyrrolidine-1-carbonyl)phenylamino)pyrazine-2-carboxamide], 10 to 100 nM.
Next, `NC(=O)c1ncc(NCC2(N)CC2)nc1Nc1ccc2ncccc2c1` [Example 128, 5-(((1-aminocyclopropyl)methyl)amino)-3-(quinolin-6-ylamino)pyrazine-2-carboxamide]: 1 to 10 nM; `CC(=O)N1CCN(c2ccc(Nc3nc(NC4CC4)cnc3C(N)=O)cc2)CC1` [Example 59, 3-(4-(4-acetylpiperazin-1-yl)phenylamino)-5-(cyclopropylamino)pyrazine-2-carboxamide]: 100 to 1000 nM.
For the compound `CC[C@@H](Nc1cnc(C(N)=O)c(Nc2cnc3ccc(F)cc3c2)n1)C(N)=O` [Example 232, (R)-5-(1-amino-1-oxobutan-2-ylamino)-3-(6-fluoroquinolin-3-ylamino)pyrazine-2-carboxamide], the IC50 fell in the range of 1 to 10 nM.
Under `NC(=O)c1ncc(N[C@@H]2CCCC[C@@H]2N)nc1Nc1snc2ccccc12` [Example 270, 5-((1R,2S)-2-aminocyclohexylamino)-3-(benzo[c]isothiazol-3-ylamino)pyrazine-2-carboxamide] stands under 1 nM; under `Cc1cncc(Nc2nc(N[C@H](CC3CC3)C(N)=O)cnc2C(N)=O)c1` [Example 99, (R)-5-(1-amino-3-cyclopropyl-1-oxopropan-2-ylamino)-3-(5-methylpyridin-3-ylamino)pyrazine-2-carboxamide], 1 to 10 nM; under `COc1cc(Nc2nc(N[C@@H]3CCCC[C@@H]3N)cnc2C(N)=O)ccn1` [Example 291, 5-((1R,2S)-2-aminocyclohexylamino)-3-(2-methoxypyridin-4-ylamino)pyrazine-2-carboxamide], 1 to 10 nM.
